Assay results as given in patent publication US9035071B2, “Compounds acting at multiple prostaglandin receptors giving a general anti-inflammatory response” (Allergan, Inc., priority 2011, dated 2015).

Key:
Format in all cases: cell-based
[1] = molecular target: T1, human recombinant prostanoid EP4 receptor (Homo sapiens, UniProt P35408); experiment: FLIPR Ca2+ signaling, PG antagonist activity, EP4; details: antagonism of standard agonist PGE2, HEK-293 EBNA stable cells with chimeric Gqs
T1 construct: expressed in transfected cells; co-transfected with chimeric Gqs-HA
T1 sequence (P35408 whole entry): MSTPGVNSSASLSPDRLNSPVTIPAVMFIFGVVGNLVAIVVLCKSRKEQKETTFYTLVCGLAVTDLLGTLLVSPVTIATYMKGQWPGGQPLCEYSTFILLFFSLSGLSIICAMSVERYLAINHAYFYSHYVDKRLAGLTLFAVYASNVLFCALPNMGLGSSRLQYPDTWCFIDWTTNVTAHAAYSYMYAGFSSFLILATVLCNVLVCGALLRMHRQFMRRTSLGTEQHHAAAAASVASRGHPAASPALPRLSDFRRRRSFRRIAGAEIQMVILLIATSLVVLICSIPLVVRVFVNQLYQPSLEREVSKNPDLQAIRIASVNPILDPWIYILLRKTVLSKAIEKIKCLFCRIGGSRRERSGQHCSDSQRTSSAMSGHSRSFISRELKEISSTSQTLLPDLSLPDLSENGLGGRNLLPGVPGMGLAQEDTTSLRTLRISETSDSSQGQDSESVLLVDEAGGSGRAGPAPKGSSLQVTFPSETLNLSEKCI
Protocol: (§1) The above compounds were tested for PG antagonist activity as follows using human recombinant prostanoid receptor (DP1, EP1-4, FP, IP and TP) stable cell lines:
(§2) In order to measure the response of Gs and Gi coupled prostanoid receptors as a Ca^2+ signal, chimeric G protein cDNAs were used. Stable cell lines over-expressing human prostanoid DP1, EP1-4, FP, IP, and TP receptors were established as follows:
(§3) Briefly, human prostanoid DP1, EP2, and EP4 receptor cDNAs were co-transfected with chimeric Gqs cDNA containing a haemagglutanin (HA) epitope; human prostanoid EP3 receptors were co-transfected with chimeric Gqi-HA; human EP1, FP, IP, and TP receptor cDNAs were expressed with no exogenous G-proteins. Gqs and Gqi chimeric cDNAs (Molecular Devices, Sunnyvale, Calif., U.S.A.), as well as cDNAs of prostanoid receptors, were cloned into a pCEP4 vector with a hygromycin B selection marker. Transfection into HEK-293 EBNA (Epstein-Barr virus nuclear antigen) cells was achieved by the FuGENE 6 transfection Reagent (Roche Applied Science, Indianapolis, Ind., USA). Stable transfectants were selected according to hygromycin resistance. Because Gqs and Gqi contained an HA epitope, G-protein expression was detected by Western blotting analysis using anti-mouse HA monoclonal antibody and horseradish peroxidase (HRP)-conjugated secondary antibody, while functional expression of prostanoid receptors was detected by FLIPR screening (Matias et al., 2004). These stable cell lines were validated using previously published antagonists at 10 μM against serial dilutions of standard agonists by FLIPR functional assays for Ca^2− Signaling (as described below).
(§4) Ca^2+ signaling studies were performed using a FLIPR TETRA system (Molecular Devices, Sunnyvale, Calif., USA) in the 384-format. This is a high-throughput instrument for cell-based assays to monitor Ca^2+ signaling associated with GPCRs and ion channels. Cells were seeded at a density of 5×10^4 cells/well in BioCoat poly-D-lysine coated, black wall, clear bottom 384-well plates (BD Biosciences, Franklin lakes, N.J., USA) and allowed to attach overnight in an incubator at 37° C. The cells were then washed twice with HBSS-HEPES buffer (Hanks' balanced salt solution without bicarbonate and phenol red, 20 mM HEPES, pH 7.4) using an ELx405 Select CW Microplate Washer (BioTek, Winooski, Vt., USA). After 60 min of dye-loading in the dark using the Ca^2+-sensitive dye Fluo-4AM (Invitrogen, Carlsbad, Calif., USA), at a final concentration of 2×10^−6M, the plates were washed 4 times with HBSS-HEPES buffer to remove excess dye and leaving 50 μl of buffer in each well. The plates were then placed in the FLIPR TETRA instrument and allowed to equilibrate at 37° C. AGN-211377 was added in a 25 μl volume to each well to give final concentrations of 0.1 μM, 0.3 μM, 1 μM, 3 μM, 10 μM, and 30 μM; or 0.067 μM, 0.1 μM, 0.2 μM, 0.3 μM, 0.67 μM, and 1 μM for cells over-expressing TP receptors. After 4.5 minutes, a 7-point serial dilution of the standard agonist for the corresponding receptor, in a 25 μl volume was injected at the final concentrations from 10^−11M to 10^−5M in 10-fold serial dilution increments for cells expressing human recombinant DP1, EP1, EP2, EP3, EP4, FP, and IP receptors. The dose range for the standard agonist for human recombinant TP receptors was from 10^−12M to 10^−6M. HBSS-HEPES buffer was used as the negative control for the standard agonists. Cells were excited with LED (light emitting diode) excitation at 470-495 nm and emission was measured through an emission filter at 515-575 nm. Assay plates were read for 3.5 minutes using the FLIPR^TETRA. The peak increase in fluorescence intensity was recorded for each well. On each plate, negative controls, dose response of positive controls, and co-treatments of antagonist-agonist for each dose were in triplicates. Standard agonists were as follows: DP=BW 245C, EP1-EP4=PGE2, FP=17-phenyl-PGF2α, IP=Cicaprost, and TP=U-46619. […]

[2] = molecular target: T2, human recombinant prostanoid EP3 receptor (Homo sapiens, UniProt P43115); experiment: FLIPR Ca2+ signaling, PG antagonist activity, EP3; details: antagonism of standard agonist PGE2, HEK-293 EBNA stable cells with chimeric Gqi
T2 construct: expressed in transfected cells; co-transfected with chimeric Gqi-HA
T2 sequence (P43115 1-390): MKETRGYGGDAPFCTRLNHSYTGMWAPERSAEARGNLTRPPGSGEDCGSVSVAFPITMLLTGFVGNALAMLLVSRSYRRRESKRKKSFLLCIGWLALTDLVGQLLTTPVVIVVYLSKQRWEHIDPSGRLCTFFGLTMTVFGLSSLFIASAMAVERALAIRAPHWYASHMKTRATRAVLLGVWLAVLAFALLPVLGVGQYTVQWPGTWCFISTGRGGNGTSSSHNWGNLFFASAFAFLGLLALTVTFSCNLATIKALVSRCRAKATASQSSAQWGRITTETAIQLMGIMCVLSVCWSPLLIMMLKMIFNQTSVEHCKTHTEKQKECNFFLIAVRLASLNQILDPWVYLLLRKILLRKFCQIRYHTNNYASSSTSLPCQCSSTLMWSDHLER
Protocol: as §1, §2, §3, §4

[3] = molecular target: T3, human recombinant prostanoid EP1 receptor (Homo sapiens, UniProt P34995); experiment: FLIPR Ca2+ signaling, PG antagonist activity, EP1; details: antagonism of standard agonist PGE2, HEK-293 EBNA stable cells
T3 construct: expressed in transfected cells
T3 sequence (P34995 1-402): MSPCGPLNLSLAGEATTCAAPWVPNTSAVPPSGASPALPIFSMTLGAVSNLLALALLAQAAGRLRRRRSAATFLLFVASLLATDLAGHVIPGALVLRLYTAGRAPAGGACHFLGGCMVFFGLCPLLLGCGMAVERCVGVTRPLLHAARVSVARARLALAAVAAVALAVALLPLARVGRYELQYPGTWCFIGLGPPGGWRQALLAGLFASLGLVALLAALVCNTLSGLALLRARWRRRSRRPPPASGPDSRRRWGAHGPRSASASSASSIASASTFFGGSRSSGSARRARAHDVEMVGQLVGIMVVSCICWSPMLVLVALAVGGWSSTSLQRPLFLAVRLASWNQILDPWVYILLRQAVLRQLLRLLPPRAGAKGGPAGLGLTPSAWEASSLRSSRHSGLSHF
Protocol: as §1, §2, §3, §4

Structure (SMILES) | Kb [1] | Kb [2] | Kb [3]
CCC(CC)COc1ccc(Br)cc1Cn1ncc(CC(=O)O)c1C [Example 1, {1-[5-bromo-2-(2-ethyl-butoxy)-benzyl]-5-methyl-1H-pyrazol-4-yl}-acetic acid] | 100 nM | ≥ 10000 nM | 170 nM
CCC(CC)COc1ccc(Br)cc1Cn1ncc(C(=O)O)c1C [Example 2, 1-[5-bromo-2-(2-ethyl-butoxy)-benzyl]-5-methyl-1H-pyrazole-4-carboxylic acid] | 380 nM | 6100 nM | 33 nM
CCC(CC)COc1ccc(Br)cc1Cn1cc(C(=O)O)c(C)n1 [Example 3] | 1300 nM | ≥ 10000 nM | 30 nM
CCC(CC)COc1ccc(Cl)cc1Cn1cc(C(=O)O)cn1 [Example 4, 1-[5-chloro-2-(2-ethyl-butoxy)-benzyl]-1H-pyrazole-4-carboxylic acid] | 4800 nM | ≥ 10000 nM | 140 nM
CCC(CC)COc1ccc(Cl)cc1Cn1nc(C)c(C(=O)O)c1C [Example 5, 1-[5-chloro-2-(2-ethyl-butoxy)-benzyl]-3,5-dimethyl-1H-pyrazole-4-carboxylic acid] | 860 nM | ≥ 10000 nM | 20 nM
CCCc1nn(Cc2cc(Cl)ccc2OCC(CC)CC)cc1C(=O)O [Example 6, 1-[5-chloro-2-(2-ethyl-butoxy)-benzyl]-3-propyl-1H-pyrazole-4-carboxylic acid] | 4900 nM | ≥ 10000 nM | 1500 nM
CCCc1c(C(=O)O)cnn1Cc1cc(Cl)ccc1OCC(CC)CC [Example 7, 1-[5-chloro-2-(2-ethyl-butoxy)-benzyl]-5-propyl-1H-pyrazole-4-carboxylic acid] | 3300 nM | ≥ 10000 nM | 640 nM
CCC(CC)COc1ccc(C(F)(F)F)cc1Cn1ncc(C(=O)O)c1C [Example 8, 1-[2-(2-ethyl-butoxy)-5-trifluoromethyl-benzyl]-5-methyl-1H-pyrazole-4-carboxylic acid] | 1600 nM | ≥ 10000 nM | 40 nM
CCC(CC)COc1ccc(C(F)(F)F)cc1Cn1cc(C(=O)O)c(C)n1 [Example 9, 1-[2-(2-ethyl-butoxy)-5-trifluoromethyl-benzyl]-3-methyl-1H-pyrazole-4-carboxylic acid] | ≥ 10000 nM | ≥ 10000 nM | 440 nM
CCC(CC)COc1ccc(Cl)cc1Cn1ncc(C(=O)O)c1C [Example 10, 1-[5-chloro-2-(2-ethyl-butoxy)-benzyl]-5-methyl-1H-pyrazole-4-carboxylic acid] | 500 nM | 3900 nM | 50 nM
Cc1c(C(=O)O)cnn1Cc1cc(Cl)ccc1OCC(C)C [Example 11, 1-(5-chloro-2-isobutoxy-benzyl)-5-methyl-1-pyrazole-4-carboxylic acid] | 3300 nM | ≥ 10000 nM | 30 nM
Cc1c(C(=O)O)cnn1Cc1cc(Cl)ccc1OCC1CCCC1 [Example 12, 1-(5-chloro-2-cyclopentylmethoxy-benzyl)-5-methyl-1H-pyrazole-4-carboxylic acid] | 600 nM | ≥ 10000 nM | 30 nM
Cc1c(C(=O)O)cnn1Cc1cc(Br)ccc1OCC(C)C [Example 13, 1-(5-bromo-2-isobutoxy-benzyl)-5-methyl-1H-pyrazole-4-carboxylic acid] | 2100 nM | ≥ 10000 nM | 30 nM
Cc1c(C(=O)O)cnn1Cc1cc(Br)ccc1OCC(C)(C)C [Example 14, 1-[5-bromo-2-(2,2-dimethyl-propoxy)-benzyl]-5-methyl-1H-pyrazole-4-carboxylic acid] | 1300 nM | ≥ 10000 nM | 30 nM
CCC(CC)COc1ccc(OC(F)(F)F)cc1Cn1ncc(C(=O)O)c1C [Example 15, 1-[2-(2-ethyl-butoxy)-5-trifluoromethoxy-benzyl]-5-methyl-1H-pyrazole-4-carboxylic acid] | 1500 nM | ≥ 10000 nM | 45 nM
CCC(CC)COc1ccc(Br)cc1Cn1ncc(C(=O)O)c1N [Example 16, 5-amino-1-[5-bromo-2-(2-ethyl-butoxy)-benzyl]-1H-pyrazole-4-carboxylic acid] | 300 nM | ≥ 10000 nM | 60 nM
